From US20260097047A1, “Small molecule inhibitors of the ribosome biogenesis factor NVL2” (Board of Regents, The University of Texas System, priority 2023, published 2026) come the findings set out here.

pIC50: −log10 of the molar value.

The subject of one assay is HCT116 cells. The assay can be described thus: Cell viability assay (CellTiter-Glo, 72 hours) in HCT116 human colorectal cancer cells. In kind it is cell-based. The following applies: Homo sapiens, HCT-116; Table 5; HCT116, 72 hours; read-out: Activity. On the procedure: Cell culture: The HCT116 cell line was obtained from ATCC and cultured in Dulbecco's Modified Eagle's Medium (DMEM)-high glucose (Sigma Aldrich #D5796) supplemented with 10% fetal bovine serum (FBS) (Sigma-Aldrich #F2442) and 2 mM L-Glutamine (Sigma Aldrich #G7513). Cells were cultured at 37° C. in 5% CO2. The identity of all cell lines was confirmed by short tandem repeat (STR) analysis and confirmed to be mycoplasma-free using a PCR based assay (Genatlantis).
Cell viability assay: In 96-well assay plates (Corning #2903), 2,000 cells were plated per well in 100 μL of medium and allowed to adhere overnight. The next day, compounds suspended in DMSO were dispensed to the assayed wells using a D300e Digital Dispenser (Tecan). All wells were normalized to 0.5% DMSO. 72 hours after incubation at 37° C. in 5% CO2, cell viability was assayed using an ATP-based luminescent viability assay, CellTiter-Glo (Promega #G8462). Substrate was mixed 1:1 with phosphate-buffered saline (PBS) supplemented with 1% Triton X-100, and 40 μL of this mixture was added to the assay wells. Plates were shaken on a microplate shaker for 10 minutes at room temperature. Luminescence (CellTiter-Glo) was recorded using a Synergy 2 microplate reader (BioTek). In Prism 9 software (GraphPad), ten-point dose response curves were plotted with baseline-correction to the vehicle control well, and IC50 values were calculated by curve fitting using asymmetric (five parameter), least squares fit.
A general note: ATP-based viability assays read luminescence as a measure of living cells.
Take `CC#CCN1C(=O)c2ccccc2Sc2cc(Nc3nccc(C#N)n3)ccc21` [2-((10-(But-2-yn-1-yl)-11-oxo-10,11-dihydrodibenzo[b,f][1,4]thiazepin-7-yl)amino)pyrimidine-4-carbonitrile]: the pIC50 was > 6.30.

With `CC#CCN1C(=O)c2ccccc2Sc2cc(Nc3nc(C)cnc3C)ccc21` [10-(But-2-yn-1-yl)-7-((3,6-dimethylpyrazin-2-yl)amino)dibenzo[b,f][1,4]thiazepin-11 (10H)-one], the pIC50 was > 6.30.

The assay is the same for the next values; noted with them: Homo sapiens, HCT-116; Table 6; HCT116, 72 hours; read-out: Activity.
In the case of `CC#CCN1C(=O)c2ccccc2Sc2cc(NC3CCOC3)cnc21` (stereo not drawn) [11-(But-2-yn-1-yl)-3-((tetrahydrofuran-3-yl)amino)benzo[f]pyrido[3,2-b][1,4]thiazepin-10(11H)-one], the pIC50 is > 6.30.

The assay is the same for the next values; noted with them: Homo sapiens, HCT-116; read-out: IC50s (cellular activity of MM017 derivatives).
Take `COCCN1C(=O)c2ccccc2Sc2cc(NC(=O)c3ccccc3OC)ccc21` [compound 5]: the pIC50 is 4.89.

Staying with this assay, now noted: Table 1; HCT116, 72 hours; read-out: Activity.
Consider `CC#CCN1C(=O)c2ccc(Cl)cc2Sc2cc(NC(=O)N3CCCCC3)ccc21`, for which the pIC50 is > 6.30.

Take `CC#CCN1C(=O)c2ccccc2Sc2cc(NC(=O)N3CCC3)cnc21` [Table 1: —CH2CCMe; azetidin-1-yl; CH; N]: the pIC50 is > 6.30.

Still in this assay, the particulars now being: Table 2; HCT116, 72 hours; read-out: Activity.
On to `CC#CCN1C(=O)c2ccccc2Sc2cc(NC(=S)N3CCC3)cnc21` [Table 2: —CH2CCMe; azetidin-1-yl; CH; N], for which the pIC50 was > 6.30.

The same assay, now with this note: Table 3; HCT116, 72 hours; read-out: Activity.
Turning to `CC#CCN1C(=O)c2ccccc2Sc2cc(NC(=O)N[C@H]3C[C@@H](OC)C3)cnc21` [Table 3: —CH2CCMe; cis-3-MeOcBu; CH/N], the pIC50 was > 6.30.

The same assay, now with this note: Table 4; HCT116, 72 hours; read-out: Activity.
As to `CC#CCN1C(=O)c2ccccc2Sc2cc(NC(=S)Nc3ccc(OC)cc3)cnc21` [Table 4: —CH2CCMe; 4-MeOPh; N], the pIC50 is > 6.30.

`CC#CCN1C(=O)c2ccccc2Sc2cc(NC(=S)Nc3ccc4scnc4c3)ccc21`: the pIC50 was > 6.30.

Still in this assay, the particulars now being: Table 5; HCT116, 72 hours; read-out: Activity.
For the compound `CC#CCN1C(=O)c2ccccc2Sc2cc(Nc3ccc(C)nn3)cnc21`, the pIC50 is > 6.30.

Consider `CC=CCN1C(=O)c2ccccc2Sc2cc(Nc3ncccc3F)cnc21`, for which the pIC50 is > 6.30.

Turning to `CCCC=CCN1C(=O)c2ccccc2Sc2cc(Nc3ncccc3F)cnc21`, the pIC50 is > 6.30.

For `CC#CCN1C(=O)c2ccccc2Sc2cc(Nc3nnccc3C#N)cnc21`, the pIC50 is > 6.30.

With `C#CCN1C(=O)c2ccccc2Sc2cc(Nc3ncc(C)nc3C)cnc21`, the pIC50 was > 6.30.

`Cc1ccnnc1Nc1cnc2c(c1)Sc1ccccc1C(=O)N2CC#CCl`: the pIC50 was > 6.30.

As for `CC#CCN1C(=O)c2ccccc2Sc2cc(Nc3nc(C#N)ccc3C)cnc21`, the pIC50 was > 6.30.

Take `CC=CCN1C(=O)c2ccccc2Sc2cc(Nc3nccnc3C)ccc21`: the pIC50 is > 6.30.

Staying with this assay, now noted: Table 6; HCT116, 72 hours; read-out: Activity.
`CC#CCN1C(=O)c2ccccc2Sc2cc(NC3CC4(COC4)C3)cnc21`: the pIC50 is > 6.30.

On to `O=C1c2ccccc2Sc2cc(NC3COC3)cnc2N1CC#CCl` [Table 6: —CH2CCCl; oxetan-3-yl; CH/N; S], for which the pIC50 was > 6.30.

In the case of `CC#CCN1C(=O)c2ccccc2Sc2cc(NCCCOC)cnc21` [Table 6: —CH2CCMe; (CH2)3OMe; CH/N; S], the pIC50 is > 6.30.

Turning to `C#CCN1C(=O)c2ccccc2Sc2cc(NC3CC(COC)C3)ccc21` (stereo not drawn) [Table 6: —CH2CCH; 3-MeOCH2-cBu; CH/CH; S], the pIC50 is > 6.30.

For `CC#CCN1C(=O)c2ccccc2Sc2cc(NC34CC(C3)C4)ccc21`, the pIC50 is > 6.30.

With `CC#CCN1C(=O)c2ccccc2Sc2cc(NCC3(C)COC3)cnc21`, the pIC50 is > 6.30.

For `CC#CCN1C(=O)c2ccccc2Sc2cc(NC34CC(C3)C4)cnc21`, the pIC50 is > 6.30.

Still in this assay, the particulars now being: Table 7; cell viability assay, CellTiter-Glo, 72 hours; scaffold drawing 42 with R^2, R^3, X/Y, Z; read-out: Activity.
As to `COCCN1C(=O)c2ccccc2Sc2cc(NC(=O)c3cc(C)oc3C)ccc21` [—(CH2)2OMe; 2,5-Me2-furan-3-yl; CH/CH; S], the pIC50 was 5.30 to 6.00.

Turning to `COCCN1C(=O)c2ccccc2Sc2cc(NC(=O)c3ccc4oc(=O)[nH]c4c3)ccc21`, the pIC50 is 5.30 to 6.00.

Consider `COCCN1C(=O)c2ccccc2Sc2cc(NC(=O)C3CC(=O)C3)ccc21` [—(CH2)2OMe; 3-oxo-cBu; CH/CH; S], for which the pIC50 is 5.30 to 6.00.

As to `COCCN1C(=O)c2ccccc2Sc2cc(NC(=O)c3cccc(CCC#N)c3)ccc21` [—(CH2)2OMe; 3-(2′-CNEt)Ph; CH/CH; S], the pIC50 is > 6.30.

Regarding `COCCN1C(=O)c2ccccc2Sc2cc(NC(=O)c3ccn4ccnc4c3)ccc21`, the pIC50 was 5.30 to 6.00.

Consider `COCCN1C(=O)c2ccccc2Sc2cc(NC(=O)c3cccc(Cl)c3)ccc21` [—(CH2)2OMe; 3-ClPh; CH/CH; S], for which the pIC50 was 5.30 to 6.00.

In the case of `COCCN1C(=O)c2ccccc2Sc2cc(NC(=O)c3cccc(C(N)=O)c3)ccc21` [—(CH2)2OMe; 3-H2NC(O)Ph; CH/CH; S], the pIC50 is 5.30 to 6.00.

Turning to `COCCN1C(=O)c2ccccc2Sc2cc(NC(=O)c3ccc4ocnc4c3)ccc21`, the pIC50 was > 6.30.

`COCCN1C(=O)c2ccccc2Sc2cc(NC(=O)c3cscn3)ccc21` [—(CH2)2OMe; thiazol-4-yl; CH/CH; S]: the pIC50 was 5.30 to 6.00.

For the compound `C#CCOCCN1C(=O)c2ccccc2Sc2cc(NC(=O)c3ccc4scnc4c3)ccc21`, the pIC50 was > 6.30.

On to `COCCN1C(=O)c2ccccc2Sc2cc(NC(=O)c3cc(F)c(OC)c(F)c3)ccc21` [—(CH2)2OMe; 3,5-F2,4-MeOPh; CH/CH; S], for which the pIC50 was 6.00 to 6.30.

Staying with this assay, now noted: Table 8; analogs of scaffold drawing 43 defined by R^2, R^3, X/Y, W; read-out: Activity (IC50 class, cell viability assay).
Consider `COCCCC(=O)Nc1cnc2c(c1)Sc1ccccc1C(=O)N2CC#CC1CC1` [—CH2CC^cPr; (CH2)3OMe; CH/CH; N], for which the pIC50 was > 6.30.

As for `CC#CCN1C(=O)c2ccccc2Sc2cc(NC(=O)NCCOC)cnc21` [—CH2CCMe; NH(CH2)2OMe; CH/CH; N], the pIC50 is > 6.30.

Turning to `O=C(Nc1cnc2c(c1)Sc1ccc(F)cc1C(=O)N2CC#CC1CC1)C1CC2(CC(O)C2)C1` (stereo not drawn), the pIC50 was > 6.30.

In the case of `CC#CCN1C(=O)c2ccc(Cl)cc2Sc2cc(NC(=O)C34CC(OC)(C3)C4)cnc21`, the pIC50 is > 6.30.

As for `CC#CCN1C(=O)c2cc(F)ccc2Sc2cc(NC(=O)C=CCO)ccc21` [—CH2CCMe; CH═CHCH2OH; CH/CF; CH], the pIC50 is > 6.30.

As to `CC#CCN1C(=O)c2cc(F)ccc2Sc2cc(NC(=O)CCCOC)ccc21` [—CH2CCMe; (CH2)3OMe; CH/CF; CH], the pIC50 was > 6.30.

For the compound `O=C(Nc1ccc2c(c1)Sc1cc(Cl)ccc1C(=O)N2CC#CCl)C1CC1CO` (racemic) [—CH2CCCl; trans-2-HOCH2-cPr; CCl/CH; CH], the pIC50 is > 6.30.

For `CC#CCN1C(=O)c2cc(F)ccc2Sc2cc(NC(=O)C3COC3)ccc21` [—CH2CCMe; oxetan-3-yl; CH/CF; CH], the pIC50 was > 6.30.

Take `O=C(Nc1cnc2c(c1)Sc1ccccc1C(=O)N2CC#CC1CC1)C1CC2(CC(=NO)C2)C1` (stereo not drawn): the pIC50 is > 6.30.

For `C#CCN1C(=O)c2ccc(Cl)cc2Sc2cc(NC(=O)[C@H]3C[C@H](OC)C3)ccc21` [—CH2CCH; trans-3-MeOcBu; CCl/CH; CH], the pIC50 is > 6.30.

Regarding `CC#CCN1C(=O)c2ccccc2Sc2cc(NC(=O)c3ccc4scnc4c3)ccc21`, the pIC50 is > 6.30.

Regarding `C#CCN1C(=O)c2ccccc2Sc2cc(NC(=O)C3CC4(CC(=NOC)C4)C3)cnc21` (stereo not drawn), the pIC50 was > 6.30.

Take `CC#CCN1C(=O)c2cc(F)ccc2Sc2cc(NC(=O)C3CC4(CC(=O)C4)C3)ccc21`: the pIC50 is > 6.30.

`CC#CCN1C(=O)c2ccccc2Sc2cc(NC(=O)[C@@H]3C[C@H]3C(=O)OC)cnc21` (relative stereo) [—CH2CCMe; trans-2-MeO2C-cPr; CH/CH; N]: the pIC50 was > 6.30.

As to `CO[C@H]1C[C@@H](C(=O)Nc2cnc3c(c2)Sc2cc(Cl)ccc2C(=O)N3CC#CCl)C1` [—CH2CCCl; cis-3-MeOcBu; CCl/CH; N], the pIC50 was > 6.30.

Still in this assay, the particulars now being: Table 9; HCT116, 72 hours; read-out: Activity.
On to `CC1c2ccccc2C(=O)N(CC#CC2CC2)c2ccc(NC(=O)C3CC(O)C3)cc21` (stereo not drawn) [Table 9: —CH2CC^cPr; cis-3-OH-cBu; CHMe], for which the pIC50 was > 6.30.

Consider `CC#CCN1C(=O)c2ccccc2C(C)c2cc(NC(=O)[C@H]3C[C@@H](OC)C3)ccc21` (stereo partly drawn) [Table 9: —CH2CCMe; cis-3-MeOcBu; CHMe], for which the pIC50 is > 6.30.

Regarding `CC#CCN1C(=O)c2ccccc2C(C)c2cc(NC(=O)C3CC(COC)C3)ccc21` (stereo not drawn) [Table 9: —CH2CCMe; 3-MeOCH2-cBu; CHMe], the pIC50 was > 6.30.

Regarding `CC1c2ccccc2C(=O)N(CC#CC2CC2)c2ccc(NC(=O)C3CC4(CC(=O)C4)C3)cc21` (stereo not drawn), the pIC50 is > 6.30.

In the case of `CC#CCN1C(=O)c2ccccc2C(C#N)c2cc(NC(=O)C3CC4(CC(=NO)C4)C3)ccc21` (stereo not drawn), the pIC50 is > 6.30.

The same assay, now with this note: cell viability assay; Table 10 analogs of scaffold drawing 45 defined by R2, R3, X/Y, W; read-out: Activity.
With `CC#CCN1C(=O)c2ccccc2Sc2cc(NC(=O)C34CC(OC)(C3)C4)ccc21`, the pIC50 was > 6.30.
